Drawing on the NIST ThermoML archive (doi:10.1016/j.tca.2019.01.021), this text covers molar enthalpy for 1 molecule.

The data set can be described thus: molar enthalpy of vaporization or sublimation. Conditions: 298.15 K; Crystal; Static calorimetry.

± gives the expanded uncertainty stated by the source.

Consider `OCCc1c[nH]c2ccccc12` [2-(1H-indol-3-yl)ethanol], for which the molar enthalpy was determined as 120 ± 2.5 kJ/mol.
